Laboratory results taken from publication PMC6268027, “Acetylcholinesterase-Inhibiting Activity of Salicylanilide N-Alkylcarbamates and Their Molecular Docking” (Molecules, 2012).

Columns and labels:
[1] = Lipophilicity determination by RP-HPLC (capacity factor k / log k); type: physicochemical; details: Symmetry C18, MeOH 70% / H2O 30%, column 45 °C
Text: A Waters Alliance 2695 XE HPLC separation module and a Waters Photodiode Array Detector 2996 (Waters Corp., Milford, MA, USA) were used. A Symmetry® C18 5 μm, 4.6 × 250 mm chromatographic column, Part No. WAT054275 (Waters Corp., Milford, MA, USA) was used. The HPLC separation process was monitored by Empower™ 2 Chromatography Data Software, Waters 2009 (Waters Corp., Milford, MA, USA). A mixture of MeOH p.a. (70%) and H2O-HPLC–Mili-Q Grade (30%) was used as a mobile phase. The total flow of the column was 1.0 mL/min, injection volume, 30 μL, column temperature, 45 °C and sample temperature, 10 °C. The detection wavelength of 210 nm was chosen. The KI methanolic solution was used for the dead time (tD) determination. The retention times (tR) were measured in minutes. The capacity factors k were calculated using the Empower™ 2 Chromatography Data Software according to formula k = (tR− tD)/tD, where tR is the retention time of the solute, whereas tD denotes the dead time obtained using an unretained analyte. Log k, calculated from the capacity factor k, is used as the lipophilicity index converted to log P scale.

[2] = molecular target: T1, acetylcholinesterase (AChE) from electric eel (Electrophorus electricus, UniProt O42275); experiment: AChE inhibition, spectrophotometric Ellman's method; type: biochemical, Electrophorus electricus L.; details: for IC50: electric eel AChE, Ellman's method, mean ± SD (n = 3 experiments); for AChE inhibition, fold higher than RIV: IC50 compared with rivastigmine
T1 construct: purchased Sigma
Description: The ability of the tested compounds to inhibit acetylcholinesterase (purchased from Sigma) from electric eel (Electrophorus electricus L.) was tested. […] The IC50 values were determined by the spectrophotometric Ellman’s method.
The IC50 values were determined using the spectrophotometric Ellman’s method, which is a simple, rapid and direct method to determine the SH and -S-S- group content in proteins. This method is widely used for measuring of cholinesterase activity and effectivity of cholinesterase inhibitors. Cholinesterase activity is measured indirectly by quantifying the concentration of 5-thio-2-nitrobenzoic acid (TNB) ion formed in the reaction between the thiol reagent 5,5′-dithiobis-2-nitrobenzoic acid (DTNB) and thiocholine, a product of substrate (i.e., acetylthiocholine, ATCh) hydrolysis by cholinesterase. All tested compounds were dissolved in dioxane (concentration 0.01 M) and then diluted in demineralised water (concentration 0.001 M and 0.0001 M). The procedure of determination of IC50 is a slightly modified Ellman’s method according to Zdrazilova and described in detail in [49]. For determination of IC50 values the inhibition was determined for 25 different compound concentrations with three replicates.

T1 sequence (O42275 24-633): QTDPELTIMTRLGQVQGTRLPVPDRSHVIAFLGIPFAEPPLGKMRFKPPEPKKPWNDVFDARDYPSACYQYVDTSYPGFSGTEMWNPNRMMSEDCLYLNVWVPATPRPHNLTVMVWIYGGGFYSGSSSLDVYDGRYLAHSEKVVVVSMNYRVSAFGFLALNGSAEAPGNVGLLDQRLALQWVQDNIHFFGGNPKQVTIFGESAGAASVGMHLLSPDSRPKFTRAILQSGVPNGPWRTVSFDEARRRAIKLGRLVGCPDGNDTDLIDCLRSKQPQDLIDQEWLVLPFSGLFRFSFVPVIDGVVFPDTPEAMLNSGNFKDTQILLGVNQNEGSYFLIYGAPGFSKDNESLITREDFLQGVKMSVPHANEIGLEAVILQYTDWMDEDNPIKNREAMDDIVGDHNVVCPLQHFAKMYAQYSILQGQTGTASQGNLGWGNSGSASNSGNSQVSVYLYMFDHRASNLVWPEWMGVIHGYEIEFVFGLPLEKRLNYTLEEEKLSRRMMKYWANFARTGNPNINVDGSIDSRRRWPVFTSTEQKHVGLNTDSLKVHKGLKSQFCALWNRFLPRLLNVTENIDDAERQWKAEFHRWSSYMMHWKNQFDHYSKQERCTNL

Row | SMILES | log k [1] | IC50 [2] [µM] | AChE inhibition, fold higher than RIV [2] [fold]
1 | CCNC(=O)Oc1ccc(Cl)cc1C(=O)Nc1cccc(Cl)c1 [4a] | 0.7523 | – | –
2 | CCCCNC(=O)Oc1ccc(Cl)cc1C(=O)Nc1cccc(Cl)c1 [4b] | 0.7611 | – | –
3 | CCCCCNC(=O)Oc1ccc(Cl)cc1C(=O)Nc1cccc(Cl)c1 [4c] | 0.7732 | 50.4 ± 0.48 | –
4 | CCCCCCNC(=O)Oc1ccc(Cl)cc1C(=O)Nc1cccc(Cl)c1 [4d] | 0.7758 | 35.1 ± 0.31 | –
5 | CCCCCCCNC(=O)Oc1ccc(Cl)cc1C(=O)Nc1cccc(Cl)c1 [4e] | 0.7772 | 61.7 ± 0.5 | –
6 | CCCCCCCCNC(=O)Oc1ccc(Cl)cc1C(=O)Nc1cccc(Cl)c1 [4f] | 0.7831 | 69.9 ± 0.49 | –
7 | CCCCCCCCCNC(=O)Oc1ccc(Cl)cc1C(=O)Nc1cccc(Cl)c1 [4g] | 0.7837 | 34.2 ± 0.26 | –
8 | CCCCCCCCCCNC(=O)Oc1ccc(Cl)cc1C(=O)Nc1cccc(Cl)c1 [4h] | 0.7873 | 52.7 ± 0.45 | –
9 | CCCCCCCCCCCNC(=O)Oc1ccc(Cl)cc1C(=O)Nc1cccc(Cl)c1 [4i] | 0.7902 | 56.9 ± 0.48 | –
10 | CCNC(=O)Oc1ccc(Cl)cc1C(=O)Nc1ccc(Cl)cc1 [5a] | 0.7695 | 59.1 ± 0.33 | –
11 | CCCCNC(=O)Oc1ccc(Cl)cc1C(=O)Nc1ccc(Cl)cc1 [5b] | 0.7759 | 48.1 ± 0.31 | –
12 | CCCCCNC(=O)Oc1ccc(Cl)cc1C(=O)Nc1ccc(Cl)cc1 [5c] | 0.7838 | 41.7 ± 0.29 | –
13 | CCCCCCNC(=O)Oc1ccc(Cl)cc1C(=O)Nc1ccc(Cl)cc1 [5d] | 0.7859 | 31 ± 0.29 | –
14 | CCCCCCCNC(=O)Oc1ccc(Cl)cc1C(=O)Nc1ccc(Cl)cc1 [5e] | 0.7872 | 49.4 ± 0.31 | –
15 | CCCCCCCCNC(=O)Oc1ccc(Cl)cc1C(=O)Nc1ccc(Cl)cc1 [5f] | 0.7899 | 62.5 ± 0.41 | –
16 | CCCCCCCCCNC(=O)Oc1ccc(Cl)cc1C(=O)Nc1ccc(Cl)cc1 [5g] | 0.7919 | 52.2 ± 0.39 | –
17 | CCCCCCCCCCNC(=O)Oc1ccc(Cl)cc1C(=O)Nc1ccc(Cl)cc1 [5h] | 0.7942 | 64.6 ± 0.41 | –
18 | CCCCCCCCCCCNC(=O)Oc1ccc(Cl)cc1C(=O)Nc1ccc(Cl)cc1 [5i] | 0.7947 | 44.3 ± 0.33 | –
19 | CCNC(=O)Oc1ccc(Cl)cc1C(=O)Nc1ccc(Cl)c(Cl)c1 [6a] | 1.0234 | 67.3 ± 0.52 | –
20 | CCCCNC(=O)Oc1ccc(Cl)cc1C(=O)Nc1ccc(Cl)c(Cl)c1 [6b] | 1.0457 | 64.7 ± 0.79 | –
21 | CCCCCNC(=O)Oc1ccc(Cl)cc1C(=O)Nc1ccc(Cl)c(Cl)c1 [6c] | 1.0601 | 56 ± 0.42 | –
22 | CCCCCCNC(=O)Oc1ccc(Cl)cc1C(=O)Nc1ccc(Cl)c(Cl)c1 [6d] | 1.0611 | 41.2 ± 0.36 | –
23 | CCCCCCCNC(=O)Oc1ccc(Cl)cc1C(=O)Nc1ccc(Cl)c(Cl)c1 [6e] | 1.0667 | 36.7 ± 0.28 | –
24 | CCCCCCCCNC(=O)Oc1ccc(Cl)cc1C(=O)Nc1ccc(Cl)c(Cl)c1 [6f] | 1.0845 | 32.1 ± 0.29 | –
25 | CCCCCCCCCNC(=O)Oc1ccc(Cl)cc1C(=O)Nc1ccc(Cl)c(Cl)c1 [6g] | 1.0880 | 43.9 ± 0.32 | –
26 | CCCCCCCCCCNC(=O)Oc1ccc(Cl)cc1C(=O)Nc1ccc(Cl)c(Cl)c1 [6h] | 1.0894 | 21.8 ± 0.2 | 23
27 | CCCCCCCCCCCNC(=O)Oc1ccc(Cl)cc1C(=O)Nc1ccc(Cl)c(Cl)c1 [6i] | 1.0903 | 29.9 ± 0.22 | 16
